{
  "source": "paper PMC6212778",
  "about": "“Site-specific amino acid substitution in dodecameric peptides determines the stability and unfolding of c-MYC quadruplex promoting apoptosis in cancer cells” (Nucleic Acids Research, 2018)",
  "key": {"[1]": {"test_system": "BCL-2, VEGF-A, KRAS transcripts in MCF-7 cells", "assay": "Real time PCR of other oncogene transcripts", "assay_type": "cell-based, human", "conditions": "MCF-7, 24 h, qPCR", "protocol": "To inspect the transcription inhibitory roles of peptides in c-MYC, BCL-2, VEGF-A and KRAS oncogenes having putative quadruplexes in their promoters, we performed real time polymerase chain reactions. MCF-7 cells are sub-cultured into 6-well microtiter plates at a density of 1 × 10^6 cells per well and treated with different concentrations of peptides (FK13, KR12A, KR12B and KR12C) for 24 hours. Total RNA is isolated from both untreated and treated cells using TRIzol method (Invitrogen) as per manufacturer's instructions. 2 μg of total RNA is processed for cDNA synthesis and reverse transcribed using a Super MuLV RT Kit (Biobharati Life Sciences Pvt. Ltd.). Real time PCR is performed using Maxima SYBR Green/ROX qPCR Master Mix (2×) (Thermo-Scientific) as per manufacturer's protocol. Housekeeping gene, GAPDH is used as an internal control to normalize the variability in c-MYC mRNA expression levels (Supplementary information Section 1). PCR primers are designed using Primer-BLAST, NCBI, and analyzed in OligoAnalyser 3.1-IDT (Supplementary Table S2)."}, "[2]": {"test_system": "BCL-2 promoter (BCL-2-GQ) in MCF-7 cells", "assay": "Dual-luciferase assay, BCL-2 promoter with BCL-2-GQ", "assay_type": "cell-based, human", "conditions": "MCF-7, 24 h, peptide 0–60 μM", "protocol": "(§1) MCF-7 cells are sub-cultured into 24-well microtiter plates at a cell density of 1 × 10^5 cells/well. Reporter constructs (c-MYC, BCL-2, KRAS and VEGF-A) (500 ng) with and/or without the G-quadruplex scaffolds triggering the expression of Renilla luciferase are co-transfected with 50 ng of pGL3-control vectors (Promega) (used as internal control), encoding firefly luciferase into MCF-7 cells using Lipofectamine® 3000 transfection reagent (Thermo-Fisher Scientific) following manufacturer's recommendations (Supplementary information Section 1). Twenty four hours post-transfection, cells are treated with peptides (FK13, KR12A, KR12B, KR12C, KR12D and KR12E) at an increasing concentration gradient.\n(§2) Dual-luciferase assays are performed to examine the intracellular selectivity of peptides for c-MYC quadruplex isomers (Pu27, Myc22 and Pu19) over other oncogenic quadruplexes (BCL-2, VEGF-A and KRAS) of different topologies. The role of peptide-quadruplex complex in oncogene promoter activation is investigated in contrast to the GQ-null promoter constructs into MCF-7 cells ([67]). After 24 h of peptide treatment, cells are washed and lysed into 100 μl 1× Passive lysis buffer (PLB) for 15 min at room temperature. Renilla and firefly Luciferase activities in 25 μl lysate are quantified by Dual-Luciferase® reporter assay system (Promega) as per manufacturer's recommendations. Renilla luciferase enzyme activity is normalized to that of the firefly luciferase activity and luminescence of the peptide-treated samples are normalized to the untreated ones, which yield the fold induction values for Renilla activities by different quadruplex structures in presence and absence of synthetic peptides. Luminescence of each sample is detected in GloMax® 20/20 Single-Tube Luminometer (Promega) in triplicates and averaged from three independent experiments."}, "[3]": {"test_system": "NM23-H2 at c-MYC-NHE III1 in MCF-7 cells", "assay": "ChIP, NM23-H2 occupancy at c-MYC-NHE III1", "assay_type": "cell-based, human", "conditions": "MCF-7, 24 h, ChIP-qPCR versus IgG control", "protocol": "Chromatin immunoprecipitation studies are conducted to monitor the promoter occupancies of different transcription factors (Sp1, NM23-H2 and Nucleolin) and RNA polymerase II (RNAPII) on the region encompassing c-MYC-NHE III1 ([69]). We have grown MCF-7 cells in 10-cm^2 culture flask at a density of 1 × 10^6 cells per well and treated with the synthetic peptides (FK13, KR12A, KR12B, and KR12C) for 24 hours. Cells are cross-linked with 1% formaldehyde at room temperature for 10 min and the reaction is stopped by 0.125 M glycine at room temperature for 10 min. Fixed cells are lysed and sonicated to yield DNA fragments of 200–500 bp. ChIP-grade antibodies (NM23-H2 (L-15) Antibody (sc-14790, Santa Cruz), and Anti-Nucleolin antibody [4E2]-ChIP Grade (Abcam)), Anti Sp1 antibody (Sigma), and Rpb1 (RNAPII subunit b1) CTD (C-terminal domain) 4H8 antibody are added to the sonicated chromatin and incubated overnight at 4°C. Then, 10 μl protein A magnetic beads (Dynal, Invitrogen), previously washed in RIPA buffer are added to the samples and bead–protein complexes are washed thrice with RIPA buffer and twice with TE buffer. The genomic DNA is eluted for 2 h at 68°C in complete elution Buffer (20 mM Tris, pH 7.5, 5 mM EDTA, 50 mM NaCl, 1% SDS and 50 μg/ml proteinase K) and further combined with the DNA eluted from second elution for 10 min at 68°C in 100 μl of elution buffer (20 mM Tris, pH 7.5, 5 mM EDTA and 50 mM NaCl). ChIP-isolated DNA is purified using MinElute Purification kit (Qiagen) and is amplified by PCR (Polymerase Chain Reaction) reactions using forward and reverse primers ([70]) (Supplementary Table S4) specific to the quadruplex-enriched regions at c-MYC promoter and Phusion® High-Fidelity PCR Kit (NEB). Anti-rabbit IgG is employed for mock immunoprecipitation (Negative control)."}, "[4]": {"test_system": "c-MYC promoter with Myc22 isomer in MCF-7 cells", "assay": "Dual-luciferase assay, c-MYC promoter under control of Myc22", "assay_type": "cell-based, human", "conditions": "MCF-7, 24 h peptide treatment", "protocol": "as §1, §2"}, "[5]": {"test_system": "c-MYC quadruplex isomer Myc22", "assay": "CD melting of free and peptide-bound Myc22", "assay_type": "binding, human", "protocol": "To understand the role of peptides (FK13, KR12A, KR12B, KR12C, KR12D and KR12E) in stabilizing native and truncated isomers of c-MYC G-quadruplex, we have performed temperature-driven CD melting experiments for free and peptide-bound complexes in JASCO-J815 CD spectrometer. We have gradually titrated the peptides into 10 μM of putative quadruplexes and acquired the spectra after 5 min of peptide addition to allow complex formation and equilibration. Samples are heated from 20 to 95°C having the temperature gradient and the delay time of 2.5°C/min and 150 s respectively. Since the quadruplexes unfold at higher temperatures and revert back to their initial conformations upon renaturation, we have assumed a ‘two-state transition’ model (folded and unfolded) to analyze the melting curves and estimated the melting temperatures (Tm) by fitting the data points into sigmoidal curves (Supplementary information Section 1)."}, "[6]": {"test_system": "c-MYC promoter with Pu19 isomer in MCF-7 cells", "assay": "Dual-luciferase assay, c-MYC promoter under control of Pu19", "assay_type": "cell-based, human", "conditions": "MCF-7, 24 h peptide treatment", "protocol": "as §1, §2"}},
  "data": [
    {"substance": "N – KRIVQRIKKWLR – C [KR12A, dodecameric mutant peptide derived from FK13 / LL37]", "values": [
      {"measurement": "transcription of other oncogenes (BCL-2, VEGF-A, KRAS)", "setting": "[1]", "value": "abrogated"},
      {"measurement": "BCL-2 promoter activity", "setting": "[2]", "value": "significantly downregulate"},
      {"measurement": "NM23-H2 occupancy at c-MYC-NHE III1", "setting": "[3]", "value": "slightly enriched"},
      {"measurement": "c-MYC promoter activation under control of Myc22", "setting": "[4]", "value": "attenuated"},
      {"measurement": "depletion of the melting temperature of Myc22 upon peptide binding", "setting": "[5]", "value": "~30", "unit": "°C"},
      {"measurement": "c-MYC promoter activation under control of Pu19", "setting": "[6]", "value": "attenuated"}
    ]},
    {"substance": "N – KRIVKLIKKWLR – C [KR12C]", "values": [
      {"measurement": "BCL-2 promoter activity", "setting": "[2]", "value": "no significant impact"},
      {"measurement": "NM23-H2 occupancy at c-MYC-NHE III1", "setting": "[3]", "value": "depleted"},
      {"measurement": "c-MYC promoter attrition in presence of Myc22, fold", "setting": "[4]", "value": "~5", "unit": "fold"},
      {"measurement": "rise in the Tm of Myc22 upon peptide binding", "setting": "[5]; 10 μM quadruplex, two-state model", "value": 6.91, "unit": "°C"},
      {"measurement": "c-MYC promoter attrition in presence of Pu19, fold", "setting": "[6]", "value": "~5", "unit": "fold"}
    ]},
    {"substance": "N – KRIVKRIKKWLR – C [KR12B, dodecameric mutant peptide derived from FK13 / LL37]", "values": [
      {"measurement": "BCL-2 promoter activity", "setting": "[2]", "value": "inverse regulation"},
      {"measurement": "NM23-H2 occupancy at c-MYC-NHE III1", "setting": "[3]", "value": "depleted the abundance"},
      {"measurement": "c-MYC promoter activation under control of Pu19", "setting": "[6]", "value": "weaker"}
    ]},
    {"substance": "N – FKRIVQRIKDFLR – C [FK13]", "values": [
      {"measurement": "transcription of other oncogenes (BCL-2, VEGF-A, KRAS)", "setting": "[1]", "value": "abrogated"},
      {"measurement": "BCL-2 promoter activity", "setting": "[2]", "value": "significantly downregulate"},
      {"measurement": "NM23-H2 occupancy at c-MYC-NHE III1", "setting": "[3]", "value": "no role"},
      {"measurement": "c-MYC promoter activation under control of Myc22", "setting": "[4]", "value": "attenuated"},
      {"measurement": "c-MYC promoter activation under control of Pu19", "setting": "[6]", "value": "attenuated"}
    ]}
  ]
}
